Experimental data reported in patent publication EP0977036A1, “METHOD FOR ASSAYING AGALACTO-IgG AND ASSAY KITS, PO[…] LECTINS, AND DNAS ENCODING THE SAME” (SEIKAGAKU CORPORATION, priority 1996, dated 1998).

Test system: PVL
Experiment: Influence of various monosaccharides on the agalacto-IgG assay system (PVL immobilized on plate, peroxidase-labeled anti-human IgG antibody)
Type: binding, Psathyrella velutina
Conditions: 50 mM monosaccharide added to agalacto-IgG standard solution (2.5 µg/ml); value without monosaccharide defined as 100%
Experimental: PVL purified in Example 1 or commercially available PVL was diluted to 20 µg/ml in 0.1 M carbonate buffer containing 10% glycerol (pH 8.5 to 9), and 50 µl of this solution (1 µg/well) was added to each well of a Nunc immunoplate (trade name; Maxisorp, Nunc), and left at 4°C for 16 hours to uniformly coat each well.
This plate was washed twice with PBS(-), and PBS(-) solution containing 3% bovine serum albumin (BSA, sold by Seikagaku Corporation) was added as a blocking agent, and left stand at room temperature for two hours to coat the portions of the wells on which PVL was not immobilized.
Then, the plate was washed three times with a washing solution (PBS(-) containing 0.05% Tween 20), and 50 µl each of standard solutions at various concentrations (0.125 to 2 µg/ml) of the agalacto-IgG purified in Preparation Example 1 was added, and left stand at 37°C for 60 minutes for reaction. As the solvent of the agalacto-IgG standard solutions, PBS(-) containing 1% BSA and 0.05% Tween 20 (referred to as "reaction diluent" hereinafter) was used. […]
After the color development, 50 µl of 1 N HCl was added to the plate to terminate the reaction, and absorbance at a wavelength of 450 nm of the solution colored by the decomposition of TMB was measured (reference wavelength: 630 nm, A450/630) by Well Reader SK601 (sold by Seikagaku Corporation). […]

Compound: CC(=O)N[C@H]1C(O)O[C@H](CO)[C@@H](O)[C@@H]1O (stereo partly shown) [GlcNAc, N-acetylglucosamine]
- inhibition: about 50%
